Reference: publication PMC11850616, “Nanomolar inhibitor of the galectin-8 N-terminal domain binds via a non-canonical cation-π interaction” (Communications Chemistry, 2025)
Like-named read-outs stand apart in the source and are kept apart here.

Columns and labels:
Gal-8C = biological target: T1, Gal-8C (Homo sapiens, UniProt O00214); experiment: competitive fluorescence polarisation assay, Gal-8C; assay type: binding; conditions: for Kd: competitive FP, mean ± SEM of n = 4 to 8; for Gal-8C selectivity ratio Kd (Gal-8C)/Kd (Gal-8N): ratio of FP Kd values
T1 construct: than to the C-terminal domain (Gal-8C)
T1 sequence (O00214 187-317 limits assumed): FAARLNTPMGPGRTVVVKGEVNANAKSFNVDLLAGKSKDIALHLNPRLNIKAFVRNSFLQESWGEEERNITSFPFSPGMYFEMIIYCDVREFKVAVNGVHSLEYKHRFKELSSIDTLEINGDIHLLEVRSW

Gal-3 = biological target: T2, Gal-3 (Homo sapiens, UniProt P17931); experiment: competitive fluorescence polarisation assay, Gal-3; assay type: binding; parameters: key to Kd (Galectin-3): n. s.: n.s. = non-soluble at tested concentration; n. b.: n.b. = non-binding up to the highest tested concentration of 1500 µM; conditions: for Kd / Kd (Galectin-3): competitive FP; for Gal-3 selectivity ratio Kd (Gal-3)/Kd (Gal-8N): ratio of FP Kd values
T2 construct: made in house
Procedure: (§1) Human galectins-1, -3, and -8N were expressed and purified as described previously[8],[23],[24]. Competitive fluorescence polarization assays were performed with a PHERAstar FS plate reader with software PHERAstar Mars version 2.10 R3 (BMG, Offenburg, Germany) and Tecan Spark multimode microplate reader (Tecan Trading AG, Switzerland), where a fluorescence anisotropy of fluorescent-tagged probes was measured by excitation at 485 nm and emission at 520 nm. Experiments were performed at 20 °C with Gal-1 at 0.5 µM, Gal-3 at 0.2 µM, and Gal-8N at 0.4 µM. Fluorescent probes used for experiments were 3,3′-dideoxy-3-[4-(fluorescein-5-yl-carbonylaminomethyl)-1H-1,2,3-triazol-1-yl]-3′-(3,5-di-methoxybenzamido)-1,1′-sulfanediyl-di-β-D-galactopyranoside at 0.02 µM for Gal-1 and -3 and 2-(fluorescein-5-yl-carbonylamino)ethyl β-D-galactopyranosyl(1-4)-2-acetamido-2-deoxy-β-D-glucopyranosyl(1–3)-β-D-galactopyranosyl(1–4)-β-D-glucopyranoside at 0.1 µM for Gal-8N in each well. Compounds were first dissolved in pure DMSO at 20 mM concentration and later diluted in 5% DMSO in PBS solution to 5-7 different concentrations. Each concentration was tested in duplicate. The highest inhibitor concentrations tested were 1.5 mM. The average values of Kd and SEM (standard error mean) were calculated from 4 to 8 duplicate measurements, showing 10–90% inhibition.

Gal-8N = biological target: T3, Gal-8N (Homo sapiens, UniProt O00214); experiment: ligand efficiency (LE) and ligand-lipophilicity efficiency (LLE) calculations; conditions: for LLE: from Gal-8N Kd and clogP; for LE: from Gal-8N Kd and number of non-hydrogen atoms
T3 construct: consisting of residues 4-158 was produced by Lund Protein Production Platform; made in house; host or cells: E. coli TUNER(DE3)
T3 sequence (O00214 4-158): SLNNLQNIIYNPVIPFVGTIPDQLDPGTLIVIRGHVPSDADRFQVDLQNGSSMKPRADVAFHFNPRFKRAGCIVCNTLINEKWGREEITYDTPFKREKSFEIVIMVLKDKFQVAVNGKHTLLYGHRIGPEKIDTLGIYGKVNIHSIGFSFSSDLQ

Gal-1 = biological target: T4, Gal-1 (Homo sapiens, UniProt P09382); experiment: competitive fluorescence polarisation assay, Gal-1; assay type: binding; conditions: for Kd: competitive FP, mean ± SEM of n = 4 to 8, 20 °C; for Gal-1 selectivity ratio Kd (Gal-1)/Kd (Gal-8N): ratio of FP Kd values
T4 construct: made in house
Procedure: as §1

[1] = biological target: T5, Gal-8N (galectin-8 N-terminal domain) (Homo sapiens, UniProt O00214); experiment: competitive fluorescence polarisation assay, Gal-8N; assay type: binding; parameters: key to Kd (Galectin-8N): n. s.: n.s. = non-soluble at tested concentration; n. b.: n.b. = non-binding up to the highest tested concentration of 1500 µM; conditions: competitive FP
T5 construct: made in house
T5 sequence (O00214 19-152 limits assumed): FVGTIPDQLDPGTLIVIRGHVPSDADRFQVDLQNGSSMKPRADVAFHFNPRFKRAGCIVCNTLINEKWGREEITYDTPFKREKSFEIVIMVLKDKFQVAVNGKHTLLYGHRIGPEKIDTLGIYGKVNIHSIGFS
Procedure: as §1

[2] = mean ± SEM of n = 4 to 8, 20 °C, read-out: Kd Gal-3
[3] = mean ± SEM of n = 4 to 8, 20 °C, read-out: Kd Gal-8N
[4] = ester compounds, highest tested concentration 1500 µM
[5] = ester compounds, highest tested concentration 1500 µM, read-out: Kd (Galectin-8N)
[6] = ester compounds, highest tested concentration 1500 µM, read-out: Kd (Galectin-3)

T4 sequence (P09382 whole entry): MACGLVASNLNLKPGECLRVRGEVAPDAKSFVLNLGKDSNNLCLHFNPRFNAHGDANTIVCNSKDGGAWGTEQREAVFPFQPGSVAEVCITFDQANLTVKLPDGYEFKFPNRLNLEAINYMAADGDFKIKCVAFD
T2 sequence (P17931 whole entry): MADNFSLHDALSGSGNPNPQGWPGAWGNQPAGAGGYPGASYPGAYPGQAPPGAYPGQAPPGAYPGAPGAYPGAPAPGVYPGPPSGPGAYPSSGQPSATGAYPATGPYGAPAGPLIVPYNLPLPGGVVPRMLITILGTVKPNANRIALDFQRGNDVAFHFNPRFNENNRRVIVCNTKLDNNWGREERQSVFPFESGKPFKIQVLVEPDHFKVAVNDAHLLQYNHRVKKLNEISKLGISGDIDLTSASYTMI

Kd (Gal-8C) [µM]	Gal-8C selectivity ratio Kd (Gal-8C)/Kd (Gal-8N) (Gal-8C)	Kd (Gal-3; [2]) [µM]	Gal-3 selectivity ratio Kd (Gal-3)/Kd (Gal-8N) (Gal-3)	LLE (Gal-8N)	LE (Gal-8N)	Kd (Gal-1) [µM]	Gal-1 selectivity ratio Kd (Gal-1)/Kd (Gal-8N) (Gal-1)	Kd [1, 3] [µM]	Kd (Galectin-3) (Gal-3; [4])	Kd [1, 5] [µM]	Kd (Galectin-8N) [1, 4]	Kd (Gal-3; [6]) [µM]	Structure (SMILES)
									n. s.	> 1500			COC(=O)c1ccc2nc(CO[C@H]3[C@@H](O)[C@@H](CO)O[C@H](Sc4ccc(Cl)c(Cl)c4)[C@@H]3OCC3CC3)n(C)c2c1 [Compound 21]
									n. s.		n. s.		COC(=O)c1ccc2nc(CO[C@H]3[C@@H](O)[C@@H](CO)O[C@H](Sc4ccc(Cl)c(Cl)c4)[C@@H]3OCc3ccccc3)n(C)c2c1 [Compound 7a]
									n. s.	201.7 ± 1.3			COC(=O)c1ccc2nc(CO[C@H]3[C@@H](O)[C@@H](CO)O[C@H](Sc4ccc(Cl)c(Cl)c4)[C@@H]3OCC(=O)OC(C)(C)C)n(C)c2c1 [Compound 27]
									n. s.	275 ± 5			C#CCO[C@@H]1[C@@H](OCc2nc3ccc(C(=O)OC)cc3n2C)[C@@H](O)[C@@H](CO)O[C@@H]1Sc1ccc(Cl)c(Cl)c1 [Compound 10]
									n. s.		n. s.		COC(=O)c1ccc2nc(CO[C@H]3[C@@H](O)[C@@H](CO)O[C@H](Sc4ccc(Cl)c(Cl)c4)[C@@H]3OCc3ccc(C)cc3)n(C)c2c1 [Compound 7c]
						44.7 ± 4.9				7.7 ± 0.3		8.5 ± 1.5	COC(=O)c1ccc2nc(CO[C@H]3[C@@H](O)[C@@H](CO)O[C@H](Sc4ccc(Cl)c(Cl)c4)[C@@H]3OCC(=O)O)n(C)c2c1 [Compound 28]
										> 1500		> 1500	COC(=O)c1ccc2nc(CO[C@H]3[C@@H](O)[C@@H](CO)O[C@H](Sc4ccc(Cl)c(Cl)c4)[C@@H]3OCc3cccc(Cl)c3)n(C)c2c1 [Compound 7f]
									n. s.		n. s.		COC(=O)c1ccc2nc(CO[C@H]3[C@@H](O)[C@@H](CO)O[C@H](Sc4ccc(Cl)c(Cl)c4)[C@@H]3OCc3cccc(C)c3)n(C)c2c1 [Compound 7b]
											n. s.	109 ± 31	COC(=O)c1ccc2nc(CO[C@H]3[C@@H](O)[C@@H](CO)O[C@H](Sc4ccc(Cl)c(Cl)c4)[C@@H]3OC)n(C)c2c1 [Compound 31]
									n. s.		n. s.		COC(=O)c1ccc2nc(CO[C@H]3[C@@H](O)[C@@H](CO)O[C@H](Sc4ccc(Cl)c(Cl)c4)[C@@H]3OCC3CCCCC3)n(C)c2c1 [Compound 18]

Further lines, the compound ahead of its results:

Structure (SMILES)	Kd (Gal-8C) [µM]	Gal-8C selectivity ratio Kd (Gal-8C)/Kd (Gal-8N) (Gal-8C)	Kd (Gal-3; [2]) [µM]	Gal-3 selectivity ratio Kd (Gal-3)/Kd (Gal-8N) (Gal-3)	LLE (Gal-8N)	LE (Gal-8N)	Kd (Gal-1) [µM]	Gal-1 selectivity ratio Kd (Gal-1)/Kd (Gal-8N) (Gal-1)	Kd [1, 3] [µM]	Kd (Galectin-3) (Gal-3; [4])	Kd [1, 5] [µM]	Kd (Galectin-8N) [1, 4]	Kd (Gal-3; [6]) [µM]
COC(=O)c1ccc(-n2cc(CO[C@@H]3[C@@H](OCc4nc5ccc(C(=O)O)cc5n4C)[C@@H](O)[C@@H](CO)O[C@@H]3Sc3ccc(Cl)c(Cl)c3)nn2)cc1 [Compound 15c]	350 ± 60	85	23 ± 4.9	5.6	0.109	0.147 (kcal/mol)/heavy atom	99 ± 3.1	24	4.1 ± 0.33				
Cn1c(CO[C@H]2[C@@H](O)[C@@H](CO)O[C@H](Sc3ccc(Cl)c(Cl)c3)[C@@H]2OCc2cccc(Cl)c2)nc2ccc(C(=O)O)cc21 [Compound 8f]	225 ± 37	125	5.8 ± 0.7	3.2	-0.422	0.187 (kcal/mol)/heavy atom	15 ± 1.3	8.3	1.8 ± 0.18				
Cc1ccc(CO[C@@H]2[C@@H](OCc3nc4ccc(C(=O)O)cc4n3C)[C@@H](O)[C@@H](CO)O[C@@H]2Sc2ccc(Cl)c(Cl)c2)cc1 [Compound 8c]	256 ± 24	122	5.9 ± 0.6	2.8	-0.259	0.185 (kcal/mol)/heavy atom	16 ± 0.75	7.6	2.1 ± 0.15				
Cn1c(CO[C@H]2[C@@H](O)[C@@H](CO)O[C@H](Sc3ccc(Cl)c(Cl)c3)[C@@H]2OCc2cn(-c3cccc(C(=O)O)c3)nn2)nc2ccc(C(=O)O)cc21 [Compound 16b]	100 ± 2	154	2.9 ± 0.4	4.5	1.11	0.173 (kcal/mol)/heavy atom	37 ± 1.1	57	0.65 ± 0.05				
Cn1c(CO[C@H]2[C@@H](O)[C@@H](CO)O[C@H](Sc3ccc(Cl)c(Cl)c3)[C@@H]2OCc2cn(-c3ccccc3C(=O)O)nn2)nc2ccc(C(=O)O)cc21 [Compound 16a]	159 ± 4	346	1.2 ± 0.2	2.6	1.26	0.177 (kcal/mol)/heavy atom	26 ± 1.1	57	0.46 ± 0.03				
COC(=O)c1ccc2nc(CO[C@H]3[C@@H](O)[C@@H](CO)O[C@H](Sc4ccc(Cl)c(Cl)c4)[C@@H]3OCc3ccc(Cl)c(Cl)c3)n(C)c2c1 [Compound 7e]											> 1500		> 1500
Cn1c(CO[C@H]2[C@@H](O)[C@@H](CO)O[C@H](Sc3ccc(Cl)c(Cl)c3)[C@@H]2OCC2CCCCC2)nc2ccc(C(=O)O)cc21 [Compound 19]	662 ± 27	161	21 ± 1.5	5.1	-0.926	0.180 (kcal/mol)/heavy atom	76 ± 15	18.5	4.1 ± 0.61				
COC(=O)c1ccccc1-n1cc(CO[C@@H]2[C@@H](OCc3nc4ccc(C(=O)O)cc4n3C)[C@@H](O)[C@@H](CO)O[C@@H]2Sc2ccc(Cl)c(Cl)c2)nn1 [Compound 15a]	355 ± 57	101	4.7 ± 1	1.3	0.182	0.149 (kcal/mol)/heavy atom	69 ± 9.5	19.7	3.5 ± 0.37				
COC(=O)c1cccc(-n2cc(CO[C@@H]3[C@@H](OCc4nc5ccc(C(=O)O)cc5n4C)[C@@H](O)[C@@H](CO)O[C@@H]3Sc3ccc(Cl)c(Cl)c3)nn2)c1 [Compound 15b]	568 ± 23	126	22 ± 5.5	4.9	0.0722	0.146 (kcal/mol)/heavy atom	104 ± 7.4	23	4.5 ± 0.24				
Cn1c(CO[C@H]2[C@@H](O)[C@@H](CO)O[C@H](Sc3ccc(Cl)c(Cl)c3)[C@@H]2OCc2ccccc2)nc2ccc(C(=O)O)cc21 [Compound 8a]	320 ± 12	213	3.7 ± 0.5	2.5	0.382	0.195 (kcal/mol)/heavy atom	14 ± 0.82	9.4	1.5 ± 0.13				
COC(=O)c1ccc2nc(CO[C@H]3[C@@H](O)[C@@H](CO)O[C@H](Sc4ccc(Cl)c(Cl)c4)[C@@H]3OCc3ccc(F)cc3)n(C)c2c1 [Compound 7d]										n. s.		n. s.	
COC(=O)c1ccc2nc(CO[C@H]3[C@@H](O)[C@@H](CO)O[C@H](Sc4ccc(Cl)c(Cl)c4)[C@@H]3OCC3CCC3)n(C)c2c1 [Compound 24]										n. s.		n. s.	
